The values that follow come from patent US11214564B2, “Compounds with thymine skeleton for use in medicine” (TECHNISCHE UNIVERSITÄT DRESDEN, priority 2019, dated 2022).

Data set [1] relates to 2950-K9 mouse colon carcinoma cells. Nature of the data set: Chemoresistance assay, 2950-K9 cells with 5-Fluorouracil. It counts as cell-based. Particulars: rising 5-FU 12-20 nM; BVDU 30 μM, compounds 1 μM or lower; FIG. 1b. The text has this: (§1) In a chemoresistance assay, a HSP27 dependent resistance to a cytostatic drug is induced in cultured cells by slowly increasing the dose of the cytostatic over several cell passages. This approach is valid for multiple cell types and cytostatic drugs and allowed us to test compounds according to the invention for their ability to inhibit HSP27 and reestablish susceptibility of the resistant cells to the cancer drug.
(§2) The addition of HSP27 inhibitors prevents development of chemoresistance and reestablishes the killing effect of Bortezomib. Cell numbers are determined at the end of the final passage to compare their growth rates.
(§3) As a reference compound, BVDU was tested at a concentration of 30 μM as previously described (Heinrich et al. (2016)). The compounds according to the invention were tested at a concentration of 1 μM or lower (see below). Test compounds were added at the start of the experiment and again after each passage and their concentrations remained unchanged throughout. […] The appropriate non-toxic dose of the test compound was determined in a dose-finding experiment beforehand.
FIG. 1b: Results of chemoresistance assay showing the resensitization of chemoresistant 2950-K9 mouse colon carcinoma cells to the drug 5-Fluorouracil (5-FU) after treatment with test compounds. 2950-K9 cells (100,000) were seeded and cultured in the presence of rising concentrations of 5-FU (12-20 nM) and HSP27 inhibitor, and passaged every 4-7 days. Cell counts were taken after the last passage at the highest concentration of 5-FU and relative cell number determined. Test compounds were BVDU, and Compound 5, Compound 12 and Compound 4, according to the invention.

Data set [2] relates to RPMI 8226 multiple myeloma cells. Nature of the data set: Chemoresistance assay, RPMI 8226 cells with Bortezomib. It counts as cell-based, human. Particulars: for resensitization of chemoresistant RPMI 8226 multiple myeloma cells to Bortezomib (relative cell number): rising Bortezomib 0.5-1 nM or 0.75-1.3 nM, BVDU 30 μM, compounds 1 μM or lower, FIG. 1a.
From the text: as §1
RPM-8226 cells, a human multiple myeloma cell line, were obtained from DSMZ (Leibniz Institute DSMZ-German Collection of Microorganisms and Cell Cultures). Cells were grown in RPMI 1640 medium (FG 1235; Biochrom AG, Berlin, Germany) supplemented with 10% (v/v) heat-inactivated fetal bovine serum in a humidified atmosphere containing 5% CO2 at 37° C. Logarithmically growing cells were seeded at a density of 100,000 cells/ml and incubated with Bortezomib (Velcade) in combination with or without test compounds. Cells were periodically counted using C-Chip Neubauer-improved counting chambers (Peqlab) and serially passaged. Cells were maintained below 1,000,000 cells/ml and typically passaged when the cell count reached 800,000 cells/ml. The starting dose of Bortezomib was typically 0.1 ng/ml and the concentration of Bortezomib was increased with each passage, e.g.: 1st passage, 0.1 ng/ml Bortezomib, 2nd passage 0.2 ng/ml Bortezomib, 3rd passage 0.3 ng/ml Bortezomib, etc.
Over 3-4 passages with increasing concentration of Bortezomib, cells begin to show resistance and finally grow at the same rate as untreated cells.
as §2, §3
FIG. 1a: Results of chemoresistance assay showing the resensitization of chemoresistant RPMI 8226 multiple myeloma cells to Bortezomib after treatment with test compounds. RPMI-8226 cells (100,000) were seeded and cultured in the presence of rising concentrations of Bortezomib (0.5-1 nM or 0.75-1.3 nM) and HSP27 inhibitor, and passaged every 4-7 days. Cell counts were taken after the last passage at the highest concentration of Bortezomib and relative cell number determined. Test compounds were BVDU, and Compound 12 and Compound 4, according to the invention.

The next data set deals with HSP27 (Homo sapiens, UniProt P04792). Nature of the data set: Aggregation assay: HSP27 chaperone activity on heat-induced aggregation of citrate synthase. In kind it is biochemical. Particulars: compound 10 μM; 1.44 μM CS, 481 nM HSP27, 43° C., 500 nm. As for the experimental part:
To test how small molecules affect the chaperone activity of HSP27, misfolding and aggregation of citrate synthase (CS), a well-known in vitro client protein of HSP27, was measured. Citrate synthase misfolds and aggregates when exposed to heat shock at 43° C. This heat denaturation is prevented or delayed in the presence of HSP27 (CS+HSP27) (Jakob et al. (1993)). […] The samples were incubated at 43° C. and the aggregation behavior of CS was monitored in a spectrometer (PerkinElmer LS55) at a wavelength of 500 nm. Substances inhibiting HSP27's chaperone activity lead to continued denaturation of the client protein and its aggregation in solution. This inhibition correlates with the strength of the interaction between HSP27 and the test substance, which is related to its binding efficiency.
In the reference experiment BVDU (CS+HSP27+BVDU) was tested at a concentration of 750 μM as previously described (Heinrich et al. (2016)).
The compounds according to the invention were tested at a concentration of 10 μM.

Sequence of HSP27 (P04792 whole entry): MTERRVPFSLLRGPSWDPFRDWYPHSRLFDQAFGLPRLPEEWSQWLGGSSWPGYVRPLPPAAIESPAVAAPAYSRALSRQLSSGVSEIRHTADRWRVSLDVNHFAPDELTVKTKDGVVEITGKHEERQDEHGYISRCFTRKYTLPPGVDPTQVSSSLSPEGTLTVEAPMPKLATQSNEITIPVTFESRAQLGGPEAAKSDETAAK

For the compound `O=C(Cc1cccc(-c2ccc(Cl)c(Cl)c2)c1)Nc1ccc(-n2ccc(=O)[nH]c2=O)cc1` [Compound 4, 2-(3′,4′-dichloro-[1,1′-biphenyl]-3-yl)-N-(4-(2,4-dioxo-3,4-dihydro-pyrimidin-1(2H)-yl)phenyl) acetamide], the “resensitization of chemoresistant 2950-K9 mouse colon carcinoma cells to 5-Fluorouracil (relative cell number)” value in data set [1] was “resensitization”. In addition, the “resensitization of chemoresistant RPMI 8226 multiple myeloma cells to Bortezomib (relative cell number)” value in data set [2] is “resensitization”. In addition, the “aggregation value related to the value from reference experiment (CS + HSP27 + BVDU), which was set at 1.0” value (shortened to “aggregation value related to the value”) at HSP27 was 1.39.
For the compound `O=C(Cc1cccc(-c2ccc(Cl)c(Cl)c2)c1)Nc1ccc(-n2cc(F)c(=O)[nH]c2=O)cc1` [Compound 12, 2-(3′,4′-dichloro-[1,1′-biphenyl]-3-yl)-N-(4-(5-fluoro-2,4-dioxo-3,4-dihydro-pyrimidin-1(2H)-yl)phenyl) acetamide], the “resensitization of chemoresistant 2950-K9 mouse colon carcinoma cells to 5-Fluorouracil (relative cell number)” value in data set [1] is reported as “resensitization”. Moreover, the “resensitization of chemoresistant RPMI 8226 multiple myeloma cells to Bortezomib (relative cell number)” value in data set [2] is reported as “resensitization”. Besides, the “aggregation value related to the value” value at HSP27 is 1.57.
Regarding `O=c1[nH]c(=O)n([C@H]2C[C@H](O)[C@@H](CO)O2)cc1/C=C/Br` [BVDU, (E)-5-(2-bromovinyl)-2′-deoxyuridine, reference compound], in data set [1], the “resensitization of chemoresistant 2950-K9 mouse colon carcinoma cells to 5-Fluorouracil (relative cell number)” value is “resensitization”. In addition, the “influence on cell growth of compound alone (control without cytostatic)” value in data set [2] (cells treated with only BVDU (30 μM) or test compound (1 μM or lower)) is “did not influence cell growth”. Moreover, the “resensitization of chemoresistant RPMI 8226 multiple myeloma cells to Bortezomib (relative cell number)” value in data set [2] was “resensitization”.
Take `O=C(Cc1cccc(-c2ccc(Cl)cc2Cl)c1)Nc1ccc(-n2ccc(=O)[nH]c2=O)cc1` [Compound 5, 2-(2′,4′-dichloro-[1,1′-biphenyl]-3-yl)-N-(4-(2,4-dioxo-3,4-dihydro-pyrimidin-1(2H)-yl)phenyl) acetamide]: the “resensitization of chemoresistant 2950-K9 mouse colon carcinoma cells to 5-Fluorouracil (relative cell number)” value in data set [1] is given as “resensitization”. Besides, on HSP27, the “aggregation value related to the value” value is 1.39.
With `COc1ccc(-c2cccc(C(=O)Nc3ccc(-n4cc(C)c(=O)[nH]c4=O)cc3)c2)cc1Cl` [Compound 45, 3′-chloro-4′-methoxy-N-(4-(5-methyl-2,4-dioxo-3,4-dihydro-pyrimidin-1(2H)-yl)phenyl)-[1,1′-biphenyl]-3-carboxamide], the “aggregation value related to the value” value at HSP27 came to 0.88.
